Data as given in patent US8263598B2, “Substituted sulfonamide compounds” (Gruenenthal GmbH, priority 2008, dated 2012).

Tests used:
[1] = target: T1, B1R receptor of rats (rB1R) (Rattus norvegicus, UniProt P97583); assay: FLIPR Ca2+ assay on rat bradykinin 1 receptor (CHO K1 rB1R cells); format: cell-based; details: test substance 10 μM; CHO K1 cells with B1R gene of rats; agonist Des-Arg9-bradykinin 100 nM; compared to maximum achievable inhibition
T1 construct: host or cells: CHO K1 cells
T1 sequence (P97583 1-337): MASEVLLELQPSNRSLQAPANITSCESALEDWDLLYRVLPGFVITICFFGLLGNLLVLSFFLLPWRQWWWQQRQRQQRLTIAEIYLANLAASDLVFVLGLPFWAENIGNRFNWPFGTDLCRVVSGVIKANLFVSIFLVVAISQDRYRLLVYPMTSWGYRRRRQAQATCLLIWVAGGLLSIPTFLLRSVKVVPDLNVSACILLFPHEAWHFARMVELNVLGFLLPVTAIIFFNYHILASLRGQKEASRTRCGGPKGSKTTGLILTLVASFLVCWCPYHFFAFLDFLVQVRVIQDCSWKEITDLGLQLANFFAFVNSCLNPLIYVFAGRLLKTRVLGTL
Procedure: (§1) The agonistic or antagonistic action of compounds can be quantified on the bradykinin 1 receptor (B1R) of humans and rats with ectopically expressing cell lines (CHO K1 cells) and with the aid of a Ca^2+-sensitive dye (Fluo-4) in the fluorescent imaging plate reader (FLIPR). The figure in percent activation refers to the Ca^2+ signal after addition of Lys-Des-Arg^9-bradykinin (0.5 nM) and Des-Arg^9-bradykinin (100 nM). Antagonists result in a suppression of the Ca^2+ inflow after the addition of the agonist. Percent inhibition values are given in comparison to the maximum achievable inhibition.
(§2) The agonistic or antagonistic action of substances can be determined on the bradykinin 1 receptor (B1R) of humans and rats by means of the following assay.
(§3) According to this assay the Ca^2+ inflow through the channel is quantified by means of a Ca^2+-sensitive dye (Fluo-4 type, Molecular Probes Europe BV, Leiden, Netherlands), in a Fluorescent Imaging Plate Reader (FLIPR, Molecular Devices, Sunnyvale, USA). Method:
(§4) Chinese hamster ovary cells (CHO K1 cells) are used, which are stably transfected with the human B1R gene (hB1R cells, Euroscreen s.a., Gosselies, Belgium), or with the B1R gene of rats (rB1R cells, Axxam, Milan, Italy). For functional investigations these cells are plated out on black 96-well plates with a clear floor (BD Biosciences, Heidelberg, Germany) in a density of 20,000/25,000 cells/well. The cells are incubated overnight with 10 vol. % FBS (foetal bovine serum, Gibco Invitrogen GmbH, Karlsruhe, Germany) at 37° C. and 5% CO2 in a culture medium (hB1R cells: Nutrient Mixture Ham's F12, Gibco Invitrogen GmbH, Karlsruhe, Germany; rB1R cells: D-MEM/F12, Gibco Invitrogen GmbH, Karlsruhe, Germany). The following day the cells are charged for 60 minutes at 37° C. with 2.13 μM Fluo-4 (Molecular Probes Europe BV, Leiden, Netherlands) in HBSS buffer (Hank's buffered saline solution, Gibco Invitrogen GmbH, Karlsruhe, Germany) together with […] (Sigma-Aldrich, Taufkirchen, Germany) and 10 mM HEPES (Sigma-Aldrich, Taufkirchen, Germany).
(§5) The plates are then washed twice with HBSS buffer and HBSS buffer is added which additionally contains 0.1% BSA (bovine serum albumin; Sigma-Aldrich, Taufkirchen, Germany), 5.6 mM glucose and 0.05% gelatin (Merck KGaA, Darmstadt, Germany). After further incubation for 20 minutes at room temperature the plates are used for the Ca^2+ measurement in the FLIPR. The Ca^2+-dependent fluorescence is measured both before and after the addition of substances (λex=488 nm, λem=540 nm). The quantification is carried out by measuring the highest fluorescence intensity (FC, fluorescence counts) over time.
(§6) The FLIPR protocol consists of two substance additions. First of all test substances (10 μM) are pipetted onto the cells and the Ca^2+ inflow is compared with the control (hB1R: Lys-Des-Arg9-bradykinin 0.5 nM; rB1R: Des-Arg9-bradykinin 100 nM). This gives the result in percent activation referred to the Ca^2+ signal after addition of Lys-Des-Arg9-bradykinin (0.5 nM), bzw. Des-Arg9-bradykinin (100 nM). After 10 minutes' incubation 0.5 nM Lys-Des-Arg9-bradykinin (hB1R) and 100 nM Des-Arg^9-bradykinin (rB1R) are applied and the inflow of Ca^2+ is likewise determined. Antagonists lead to a suppression of the Ca^2+ inflow. The percent inhibition compared to the maximum achievable inhibition is calculated. The compounds show a good activity on both human and rat receptors.
(§7) The agonistic and antagonistic action of the compounds according to the invention on the bradykinin 1 receptor (B1R) of humans and rats were determined as described above. Antagonists lead to a suppression of the Ca^2+ inflow. The % inhibition compared to the maximum achievable inhibition was calculated.

[2] = target: T2, human B1R receptor (hB1R) (Homo sapiens, UniProt P46663); assay: FLIPR Ca2+ assay on human bradykinin 1 receptor (CHO K1 hB1R cells); format: cell-based; details: test substance 10 μM; CHO K1 cells with human B1R gene; agonist Lys-Des-Arg9-bradykinin 0.5 nM; compared to maximum achievable inhibition
T2 construct: host or cells: CHO K1 cells
T2 sequence (P46663 1-353): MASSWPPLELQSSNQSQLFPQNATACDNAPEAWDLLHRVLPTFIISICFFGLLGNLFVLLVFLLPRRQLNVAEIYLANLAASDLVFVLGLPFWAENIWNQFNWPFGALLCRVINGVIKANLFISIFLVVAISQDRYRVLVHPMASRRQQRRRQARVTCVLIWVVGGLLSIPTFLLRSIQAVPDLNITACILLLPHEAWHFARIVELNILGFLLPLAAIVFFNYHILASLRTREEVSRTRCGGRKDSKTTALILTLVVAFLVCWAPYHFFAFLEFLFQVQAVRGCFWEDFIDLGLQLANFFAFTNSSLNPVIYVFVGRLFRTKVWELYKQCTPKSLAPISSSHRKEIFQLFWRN
Procedure: as §1, §2, §3, §4, §5, §6, §7

| inhibition at 10 µM [1] [%] | inhibition at 10 µM [2] [%] | SMILES |
| --- | --- | --- |
| 97 | 99 | COc1cc(C)c(S(=O)(=O)N(C)CCOCC(=O)N2CCn3cccc3C2C)c(C)c1C (stereo not shown) [Example 80, 4-methoxy-N,2,3,6-tetramethyl-N-(2-(2-(1-methyl-3,4-dihydropyrrolo[1,2-a]pyrazin-2(1H)-yl)-2-oxoethoxy)ethyl)benzenesulfonamide] |
| 98 | 102 | O=C(C[C@@H](NS(=O)(=O)c1ccc2ccccc2c1)c1ccccc1)N1CCn2cc(CN3CCCCC3)nc2C1 [Example 4, (R)-N-(3-oxo-1-phenyl-3-(2-(piperidin-1-ylmethyl)-5,6-dihydroimidazo[1,2-a]pyrazin-7(8H)-yl)propyl)naphthalene-2-sulfonamide] |
| 98 | 101 | COc1cc(C)c(S(=O)(=O)N(CCOCC(=O)N2CCn3cccc3C2c2cccnc2)CC(C)C)c(C)c1C (stereo not shown) [Example 19, N-isobutyl-4-methoxy-2,3,6-trimethyl-N-(2-(2-oxo-2-(1-(pyridin-3-yl)-3,4-dihydropyrrolo[1,2-a]pyrazin-2(1H)-yl)ethoxy)ethyl)benzenesulfonamide] |
| 103 | 103 | Cc1cc(C)c(S(=O)(=O)N(C)CCOCC(=O)N2CCn3cccc3C2C(C)C)c(C)c1 (stereo not shown) [Example 147, N-(2-(2-(1-isopropyl-3,4-dihydropyrrolo[1,2-a]pyrazin-2(1H)-yl)-2-oxoethoxy)ethyl)-N,2,4,6-tetramethylbenzenesulfonamide] |
| 100 | 48 | COc1cc(C)c(S(=O)(=O)N(CCOCC(=O)N2CCn3cccc3C2c2cccs2)Cc2ccccc2)c(C)c1 (stereo not shown) [Example 50, N-benzyl-4-methoxy-2,6-dimethyl-N-(2-(2-oxo-2-(1-(thiophen-2-yl)-3,4-dihydropyrrolo[1,2-a]pyrazin-2(1H)-yl)ethoxy)ethyl)benzenesulfonamide] |
| 48 | 63 | Cc1cc(C)c(S(=O)(=O)N(C)CCOCC(=O)N2CCn3cccc3C2c2cccc(C(F)(F)F)c2)c(C)c1 (stereo not shown) [Example 75, N,2,4,6-tetramethyl-N-(2-(2-oxo-2-(1-(3-(trifluoromethyl)phenyl)-3,4-dihydropyrrolo[1,2-a]pyrazin-2(1H)-yl)ethoxy)ethyl)benzenesulfonamide] |
| 100 | 101 | COc1cc(C)c(S(=O)(=O)N(C)CCOCC(=O)N2CCn3cccc3C2C(C)(C)C)c(C)c1C (stereo not shown) [Example 79, N-(2-(2-(1-tert-butyl-3,4-dihydropyrrolo[1,2-a]pyrazin-2(1H)-yl)-2-oxoethoxy)ethyl)-4-methoxy-N,2,3,6-tetramethylbenzenesulfonamide] |
| 93 | 98 | COc1cc(C)c(S(=O)(=O)N(C)CCOCC(=O)N2CCn3cccc3C2c2cccnc2)c(C)c1 (stereo not shown) [Example 54, 4-methoxy-N,2,6-trimethyl-N-(2-(2-oxo-2-(1-(pyridin-3-yl)-3,4-dihydropyrrolo[1,2-a]pyrazin-2(1H)-yl)ethoxy)ethyl)benzenesulfonamide] |
| 98 | 95 | COc1c(C)cc(S(=O)(=O)N(C)CCOCC(=O)N2CCn3cccc3C2C(C)(C)C)c(C)c1C (stereo not shown) [Example 27, N-(2-(2-(1-tert-butyl-3,4-dihydropyrrolo[1,2-a]pyrazin-2(1H)-yl)-2-oxoethoxy)ethyl)-4-methoxy-N,2,3,5-tetramethylbenzenesulfonamide] |
| 99 | 101 | Cc1cc(C)c(S(=O)(=O)N(C)CCOCC(=O)N2CCn3cccc3C2c2ccccc2)c(C)c1 (stereo not shown) [Example 70, N,2,4,6-tetramethyl-N-(2-(2-oxo-2-(1-phenyl-3,4-dihydropyrrolo[1,2-a]pyrazin-2(1H)-yl)ethoxy)ethyl)benzenesulfonamide] |
| 101 | 75 | COc1cc(C)c(S(=O)(=O)N(CCOCC(=O)N2CCn3cccc3C2C(C)C)Cc2ccccc2)c(C)c1 (stereo not shown) [Example 155, N-benzyl-N-(2-(2-(1-isopropyl-3,4-dihydropyrrolo[1,2-a]pyrazin-2(1H)-yl)-2-oxoethoxy)ethyl)-4-methoxy-2,6-dimethylbenzenesulfonamide] |
| 102 | 104 | CCC1c2cccn2CCN1C(=O)COCCN(C)S(=O)(=O)c1c(C)cc(OC)cc1C (stereo not shown) [Example 135, N-(2-(2-(1-ethyl-3,4-dihydropyrrolo[1,2-a]pyrazin-2(1H)-yl)-2-oxoethoxy)ethyl)-4-methoxy-N,2,6-trimethylbenzenesulfonamide] |
| 100 | 102 | COc1cc(C)c(S(=O)(=O)N(C)CCOCC(=O)N2CCn3cccc3C2c2ccc(C(F)(F)F)cc2F)c(C)c1 (stereo not shown) [Example 63, N-(2-(2-(1-(2-fluoro-4-(trifluoromethyl)phenyl)-3,4-dihydropyrrolo[1,2-a]pyrazin-2(1H)-yl)-2-oxoethoxy)ethyl)-4-methoxy-N,2,6-trimethylbenzene-sulfonamide] |
| 103 | 98 | CCC1c2cccn2CCN1C(=O)COCCN(CC(C)C)S(=O)(=O)c1c(C)cc(OC)c(C)c1C (stereo not shown) [Example 100, N-(2-(2-(1-ethyl-3,4-dihydropyrrolo[1,2-a]pyrazin-2(1H)-yl)-2-oxoethoxy)ethyl)-N-isobutyl-4-methoxy-2,3,6-trimethylbenzenesulfonamide] |
| 102 | 102 | CCC1c2cccn2CCN1C(=O)COCCN(C)S(=O)(=O)c1c(C)cc(OC)c(C)c1C (stereo not shown) [Example 152, N-(2-(2-(1-ethyl-3,4-dihydropyrrolo[1,2-a]pyrazin-2(1H)-yl)-2-oxoethoxy)ethyl)-4-methoxy-N,2,3,6-tetramethylbenzenesulfonamide] |
| 102 | 100 | CCC1c2cccn2CCN1C(=O)COCCN(Cc1ccccc1)S(=O)(=O)c1c(C)cc(OC)cc1C (stereo not shown) [Example 132, N-benzyl-N-(2-(2-(1-ethyl-3,4-dihydropyrrolo[1,2-a]pyrazin-2(1H)-yl)-2-oxoethoxy)ethyl)-4-methoxy-2,6-dimethylbenzenesulfonamide] |
| 92 | 87 | Cc1cc(C)c(S(=O)(=O)N(C)CCOCC(=O)N2CCn3cccc3C2C)c(C)c1 (stereo not shown) [Example 66, N,2,4,6-tetramethyl-N-(2-(2-(1-methyl-3,4-dihydropyrrolo[1,2-a]pyrazin-2(1H)-yl)-2-oxoethoxy)ethyl)benzenesulfonamide] |
